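Test compounds were applied to cells in 96-well plates for 48 hours at 5 doses. GI50 is the concentration that inhibits growth by half. At the TGI there is no net growth.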
test system: SNB-75 CNS; assay: growth of human tumour cells (NCI), 48 h

**Q.** Which GI50 does the source give for `Cc1cccc(NC(=O)c2sc3nc4c(cc3c2N)CN(Cc2ccccc2)CC4)c1C` here?
**A.** 0.112 µM

**Q.** What about the TGI of the same compound?
**A.** 0.419 µM

**Q.** What does the source list for `CC1=CC(=O)C(O)C2(C)C1CC(O)C13COC4(C)C(OC(=O)C41)C(O)C23` (stereo unspecified)?
**A.** GI50: 22 µM; TGI: > 100 µM

test system: SW-620 colon; assay: growth of human tumour cells (NCI), 48 h

**Q.** How did the GI50 turn out when `O=C(Oc1cccnc1)c1ccsc1Nc1ccnc(C(F)(F)F)c1` was run?
**A.** 4.09 µM

**Q.** And the TGI?
**A.** > 100 µM

**Q.** How did the GI50 turn out when `BrCc1ccc(CBr)cc1` was run?
**A.** 5.1 µM

**Q.** What about the TGI of the same compound?
**A.** 17.6 µM

**Q.** `Cc1cccc(NC(=O)c2sc3nc4c(cc3c2N)CN(Cc2ccccc2)CC4)c1C` was tested. Which GI50 did it give?
**A.** 0.207 µM

**Q.** What about the TGI of the same compound?
**A.** > 50 µM

**Q.** What does the source list for `CC1=CC(=O)C(O)C2(C)C1CC(O)C13COC4(C)C(OC(=O)C41)C(O)C23` (stereo unspecified)?
**A.** GI50: 5.41 µM; TGI: 89.9 µM

test system: SN12C renal; assay: growth of human tumour cells (NCI), 48 h

**Q.** Which results are given for `O=C(Oc1cccnc1)c1ccsc1Nc1ccnc(C(F)(F)F)c1`?
**A.** GI50: 4.44 µM; TGI: > 100 µM

**Q.** With `BrCc1ccc(CBr)cc1` as the compound, how does the GI50 read?
**A.** 2.2 µM

**Q.** What about the TGI of the same compound?
**A.** 6.27 µM

**Q.** What does the source list for `Cc1cccc(NC(=O)c2sc3nc4c(cc3c2N)CN(Cc2ccccc2)CC4)c1C`?
**A.** GI50: 0.313 µM; TGI: > 50 µM

**Q.** Which results are given for `CC1=CC(=O)C(O)C2(C)C1CC(O)C13COC4(C)C(OC(=O)C41)C(O)C23` (stereo unspecified)?
**A.** GI50: 8.32 µM; TGI: 32.7 µM

test system: MOLT-4 leukemia; assay: growth of human tumour cells (NCI), 48 h

**Q.** For `O=C(Oc1cccnc1)c1ccsc1Nc1ccnc(C(F)(F)F)c1`, which GI50 is on record?
**A.** 4.39 µM

**Q.** And the TGI?
**A.** 35 µM

**Q.** How did the GI50 turn out when `BrCc1ccc(CBr)cc1` was run?
**A.** 2.11 µM

**Q.** What does the source list for `Cc1cccc(NC(=O)c2sc3nc4c(cc3c2N)CN(Cc2ccccc2)CC4)c1C`?
**A.** GI50: 0.286 µM; TGI: > 50 µM

**Q.** With `CC1=CC(=O)C(O)C2(C)C1CC(O)C13COC4(C)C(OC(=O)C41)C(O)C23` (stereo unspecified) as the compound, how does the GI50 read?
**A.** 0.0398 µM

**Q.** And the TGI?
**A.** 7.34 µM

test system: LOX IMVI melanoma; assay: growth of human tumour cells (NCI), 48 h

**Q.** With `O=C(Oc1cccnc1)c1ccsc1Nc1ccnc(C(F)(F)F)c1` as the compound, how does the GI50 read?
**A.** 3.19 µM

**Q.** And the TGI?
**A.** > 100 µM

**Q.** `BrCc1ccc(CBr)cc1` was tested. Which GI50 did it give?
**A.** 4.51 µM

**Q.** And the TGI?
**A.** > 100 µM

**Q.** For `Cc1cccc(NC(=O)c2sc3nc4c(cc3c2N)CN(Cc2ccccc2)CC4)c1C`, which GI50 is on record?
**A.** 0.254 µM

**Q.** And the TGI?
**A.** > 50 µM

**Q.** `CC1=CC(=O)C(O)C2(C)C1CC(O)C13COC4(C)C(OC(=O)C41)C(O)C23` (stereo unspecified) was tested. Which GI50 did it give?
**A.** 2.41 µM

**Q.** And the TGI?
**A.** 8.4 µM

test system: CAKI-1 renal; assay: growth of human tumour cells (NCI), 48 h

**Q.** With `O=C(Oc1cccnc1)c1ccsc1Nc1ccnc(C(F)(F)F)c1` as the compound, how does the GI50 read?
**A.** 3.82 µM

**Q.** And the TGI?
**A.** > 100 µM

**Q.** Which GI50 does the source give for `BrCc1ccc(CBr)cc1` here?
**A.** 1.99 µM

**Q.** What about the TGI of the same compound?
**A.** 6.92 µM

**Q.** Which GI50 does the source give for `CC1=CC(=O)C(O)C2(C)C1CC(O)C13COC4(C)C(OC(=O)C41)C(O)C23` (stereo unspecified) here?
**A.** 10.4 µM

**Q.** What about the TGI of the same compound?
**A.** 54.4 µM

test system: OVCAR-3 ovarian; assay: growth of human tumour cells (NCI), 48 h

**Q.** `O=C(Oc1cccnc1)c1ccsc1Nc1ccnc(C(F)(F)F)c1` was tested. Which GI50 did it give?
**A.** 8.76 µM

**Q.** What about the TGI of the same compound?
**A.** > 100 µM

**Q.** Which results are given for `BrCc1ccc(CBr)cc1`?
**A.** GI50: 4.1 µM; TGI: 17.4 µM

**Q.** How did the GI50 turn out when `Cc1cccc(NC(=O)c2sc3nc4c(cc3c2N)CN(Cc2ccccc2)CC4)c1C` was run?
**A.** 0.194 µM

**Q.** What about the TGI of the same compound?
**A.** 31.9 µM

**Q.** Which results are given for `CC1=CC(=O)C(O)C2(C)C1CC(O)C13COC4(C)C(OC(=O)C41)C(O)C23` (stereo unspecified)?
**A.** GI50: 19.5 µM; TGI: 62.9 µM

test system: MDA-MB-231 breast; assay: growth of human tumour cells (NCI), 48 h

**Q.** For `O=C(Oc1cccnc1)c1ccsc1Nc1ccnc(C(F)(F)F)c1`, which GI50 is on record?
**A.** 6.03 µM

**Q.** And the TGI?
**A.** > 100 µM

**Q.** What does the source list for `BrCc1ccc(CBr)cc1`?
**A.** GI50: 13.9 µM; TGI: 35.1 µM

**Q.** Which GI50 does the source give for `Cc1cccc(NC(=O)c2sc3nc4c(cc3c2N)CN(Cc2ccccc2)CC4)c1C` here?
**A.** 0.432 µM

**Q.** What about the TGI of the same compound?
**A.** > 50 µM

**Q.** For `CC1=CC(=O)C(O)C2(C)C1CC(O)C13COC4(C)C(OC(=O)C41)C(O)C23` (stereo unspecified), which GI50 is on record?
**A.** 15.4 µM

**Q.** And the TGI?
**A.** 43.9 µM

test system: KM12 colon; assay: growth of human tumour cells (NCI), 48 h

**Q.** Which results are given for `O=C(Oc1cccnc1)c1ccsc1Nc1ccnc(C(F)(F)F)c1`?
**A.** GI50: 3.38 µM; TGI: 10.3 µM

**Q.** For `BrCc1ccc(CBr)cc1`, which GI50 is on record?
**A.** 1.29 µM

**Q.** What about the TGI of the same compound?
**A.** 6.71 µM

**Q.** What does the source list for `Cc1cccc(NC(=O)c2sc3nc4c(cc3c2N)CN(Cc2ccccc2)CC4)c1C`?
**A.** GI50: 0.193 µM; TGI: > 50 µM

**Q.** With `CC1=CC(=O)C(O)C2(C)C1CC(O)C13COC4(C)C(OC(=O)C41)C(O)C23` (stereo unspecified) as the compound, how does the GI50 read?
**A.** 7.41 µM

**Q.** What about the TGI of the same compound?
**A.** 33.6 µM

test system: TK-10 renal; assay: growth of human tumour cells (NCI), 48 h

**Q.** How did the GI50 turn out when `O=C(Oc1cccnc1)c1ccsc1Nc1ccnc(C(F)(F)F)c1` was run?
**A.** 4.91 µM

**Q.** And the TGI?
**A.** 93.7 µM

**Q.** With `BrCc1ccc(CBr)cc1` as the compound, how does the GI50 read?
**A.** 1.58 µM

**Q.** And the TGI?
**A.** 5.99 µM

**Q.** Which results are given for `Cc1cccc(NC(=O)c2sc3nc4c(cc3c2N)CN(Cc2ccccc2)CC4)c1C`?
**A.** GI50: 5.36 µM; TGI: > 50 µM

**Q.** For `CC1=CC(=O)C(O)C2(C)C1CC(O)C13COC4(C)C(OC(=O)C41)C(O)C23` (stereo unspecified), which GI50 is on record?
**A.** 12.1 µM

**Q.** And the TGI?
**A.** 44.3 µM

test system: MCF7 breast; assay: growth of human tumour cells (NCI), 48 h

**Q.** For `O=C(Oc1cccnc1)c1ccsc1Nc1ccnc(C(F)(F)F)c1`, which GI50 is on record?
**A.** 3.51 µM

**Q.** What about the TGI of the same compound?
**A.** > 100 µM

**Q.** How did the GI50 turn out when `BrCc1ccc(CBr)cc1` was run?
**A.** 1.89 µM

**Q.** What about the TGI of the same compound?
**A.** > 21.7 µM

**Q.** What does the source list for `Cc1cccc(NC(=O)c2sc3nc4c(cc3c2N)CN(Cc2ccccc2)CC4)c1C`?
**A.** GI50: 0.151 µM; TGI: > 50 µM

**Q.** For `CC1=CC(=O)C(O)C2(C)C1CC(O)C13COC4(C)C(OC(=O)C41)C(O)C23` (stereo unspecified), which GI50 is on record?
**A.** 3.95 µM

**Q.** And the TGI?
**A.** 21.9 µM

test system: OVCAR-8 ovarian; assay: growth of human tumour cells (NCI), 48 h

**Q.** What does the source list for `O=C(Oc1cccnc1)c1ccsc1Nc1ccnc(C(F)(F)F)c1`?
**A.** GI50: 4.14 µM; TGI: > 100 µM

**Q.** What does the source list for `BrCc1ccc(CBr)cc1`?
**A.** GI50: 5.52 µM; TGI: 20.9 µM

**Q.** With `Cc1cccc(NC(=O)c2sc3nc4c(cc3c2N)CN(Cc2ccccc2)CC4)c1C` as the compound, how does the GI50 read?
**A.** 0.297 µM

**Q.** And the TGI?
**A.** > 50 µM

**Q.** What does the source list for `CC1=CC(=O)C(O)C2(C)C1CC(O)C13COC4(C)C(OC(=O)C41)C(O)C23` (stereo unspecified)?
**A.** GI50: 5.57 µM; TGI: 25.2 µM

test system: HL-60(TB) leukemia; assay: growth of human tumour cells (NCI), 48 h

**Q.** With `BrCc1ccc(CBr)cc1` as the compound, how does the GI50 read?
**A.** 7.6 µM

**Q.** `CC1=CC(=O)C(O)C2(C)C1CC(O)C13COC4(C)C(OC(=O)C41)C(O)C23` (stereo unspecified) was tested. Which GI50 did it give?
**A.** 4.24 µM

**Q.** What about the TGI of the same compound?
**A.** > 100 µM

test system: SK-OV-3 ovarian; assay: growth of human tumour cells (NCI), 48 h

**Q.** With `O=C(Oc1cccnc1)c1ccsc1Nc1ccnc(C(F)(F)F)c1` as the compound, how does the GI50 read?
**A.** 4 µM

**Q.** What about the TGI of the same compound?
**A.** 29.5 µM

**Q.** Which results are given for `BrCc1ccc(CBr)cc1`?
**A.** GI50: 0.477 µM; TGI: 7.24 µM

**Q.** Which results are given for `Cc1cccc(NC(=O)c2sc3nc4c(cc3c2N)CN(Cc2ccccc2)CC4)c1C`?
**A.** GI50: 0.216 µM; TGI: > 50 µM

**Q.** What does the source list for `CC1=CC(=O)C(O)C2(C)C1CC(O)C13COC4(C)C(OC(=O)C41)C(O)C23` (stereo unspecified)?
**A.** GI50: 16.5 µM; TGI: 95.7 µM

test system: HCT-116 colon; assay: growth of human tumour cells (NCI), 48 h

**Q.** For `O=C(Oc1cccnc1)c1ccsc1Nc1ccnc(C(F)(F)F)c1`, which GI50 is on record?
**A.** 3.95 µM

**Q.** And the TGI?
**A.** > 100 µM

**Q.** How did the GI50 turn out when `BrCc1ccc(CBr)cc1` was run?
**A.** 5.4 µM

**Q.** `Cc1cccc(NC(=O)c2sc3nc4c(cc3c2N)CN(Cc2ccccc2)CC4)c1C` was tested. Which GI50 did it give?
**A.** 0.227 µM

**Q.** And the TGI?
**A.** > 50 µM

**Q.** `CC1=CC(=O)C(O)C2(C)C1CC(O)C13COC4(C)C(OC(=O)C41)C(O)C23` (stereo unspecified) was tested. Which GI50 did it give?
**A.** 4.11 µM

**Q.** And the TGI?
**A.** 19.3 µM

test system: SF-295 CNS; assay: growth of human tumour cells (NCI), 48 h

**Q.** For `O=C(Oc1cccnc1)c1ccsc1Nc1ccnc(C(F)(F)F)c1`, which GI50 is on record?
**A.** 24 µM

**Q.** And the TGI?
**A.** > 100 µM

**Q.** For `BrCc1ccc(CBr)cc1`, which GI50 is on record?
**A.** 5.12 µM

**Q.** What about the TGI of the same compound?
**A.** 15.8 µM

From PubChem BioAssay (NCI)
